Measured values published in US9012455B2, “Pharmaceutical compositions containing an indoyl isoquinoline containing compound and uses thereof” (The Regents of the University of California, priority 2006, dated 2015).
Where “and” joins values, the source holds several entries; their conditions need not be identical. Equal values may be shown once. Read-outs that look alike come from different tables or passages of the source.

How the values were obtained:
Rad51-BRC repeat binding = biological target: T1, Rad51-BRC repeat binding (Homo sapiens, UniProt Q06609); test: SPR (Biacore) competitive binding assay, solution competition format
T1 sequence (Q06609 1-339): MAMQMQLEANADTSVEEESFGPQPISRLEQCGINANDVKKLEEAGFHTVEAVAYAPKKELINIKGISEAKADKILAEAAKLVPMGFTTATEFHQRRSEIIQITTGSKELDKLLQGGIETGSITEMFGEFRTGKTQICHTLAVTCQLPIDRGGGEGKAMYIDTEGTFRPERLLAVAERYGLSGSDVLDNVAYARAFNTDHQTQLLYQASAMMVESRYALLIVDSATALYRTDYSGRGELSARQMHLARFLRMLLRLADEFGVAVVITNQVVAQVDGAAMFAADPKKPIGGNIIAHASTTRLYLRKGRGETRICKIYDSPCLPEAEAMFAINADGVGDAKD
Experimental: Therefore, the 5-position of indole ring may provide a potential site for further modification. The inventors also noticed that there is a chiral center in the IBR compounds as marked by an asterisk in FIG. 1B. Initially, the inventors separated these two enantiomers by chiral HPLC (Regis Whelk-O1, Hexane:isopropanol=75:25) as shown in chromatogram of FIG. 1C and determined the absolute configuration by X-ray crystallography. […] Here, the inhibition of Rad51-BRC repeat binding was analyzed by SPR in a solution competition format.
Successful entities are then analyzed with Biacore's surface plasmon resonance (SPR) technique in a solution competition format to determine their median inhibitory concentration on Rad51. Briefly, the assays are performed on a Biacore 3000 (Biacore Inc.) using a Sensor chip NTA (Biacore Inc.) for capturing His-tagged Rad51 protein. The concentration of BRC protein is kept constant. Compounds are dissolved in DMSO at 20 mM and serially diluted in each BRC test sample. The assays are performed at 25° C. in running buffer (10 mM HEPES, 150 mM NaCl, 0.1% DMSO). Relative BRC-Rad51 binding percentage in the presence of inhibitors is calculated. The experiments are carried out in triplicate and averaged. The best-fit competitive binding curve is drawn and median inhibitory concentration of each candidate compound is obtained. The results of these assays are thought to help to establish a quantitative structure-activity relationship, which in turn guides further optimization of the positive hits.
To further determine the binding affinity of IBR2 to Rad51, the inventors then used a Biacore competitive binding assay.

BRC-RAD51 interaction = biological target: T2, BRC-RAD51 interaction (Homo sapiens, UniProt Q06609); test: inducible reverse yeast two-hybrid screening; type: cell-based
T2 construct: expressed in transfected cells; host or cells: yeast strain harboring a TetOp-driven URA3 gene
T2 sequence (Q06609 1-339): T1 sequence (Q06609 1-339)
Source text: Briefly, two fusion proteins, the TetR-BRC fusion protein (TetR/NCB, constitutively expressed) and the Rad51-activation domain fusion protein (AD/Rad51, expressed under the GAL1 promoter), worked together as a transcriptional activator in a yeast strain harboring a TetOp-driven URA3 gene. The interaction between these two fusion proteins induced the expression of URA3 gene, and the toxic metabolite from 5-FOA in the medium caused cell death. If the small molecules tested inhibited TetR/BRC/AD/Rad51 interaction, URA3 expression was abolished and cells are allowed to grow.
The reverse yeast two-hybrid system is used to perform the second round screening of the modified small compounds. TetR/NCB fission protein which contains BRC1-4 repeats (TetR/NCB) are expressed constitutively; the expression of a RAD51-GAL4 Activation Domain fusion protein (AD/RAD51) is rendered galactose-inducible under GAL1 promoter. Yeast is grown on a galactose medium containing 5-FOA. The assay is performed on 96-well plates. Small molecule compounds are added into the medium at the concentration of 10 mM in the total volume of 100 ml. The compounds that can disrupt the BRC-RAD51 interaction are identified by the viability of the yeast.

[1] = system: Rad51 foci formation in MCF-7 breast cancer cells; test: IR-induced Rad51 foci formation assay; type: cell-based
Experimental: These compounds were then tested for their effects on the IR-induced Rad51 foci formation in MCF-7 breast cancer cells. […] These compounds were then tested for their effects on the IR-induced Rad51 foci formation in MCF-7 breast cancer cells as also described in WO 2006/044933.

Rad51 [2] = biological target: T3, Rad51 (Homo sapiens, UniProt Q06609); test: SPR compound pretreatment, immobilized Rad51; type: binding
T3 sequence (Q06609 1-339): T1 sequence (Q06609 1-339)
Experimental: (§1) To determine whether it was Rad51 or BRC repeat that actually served as a direct target of these compounds, surface plasmon resonance (SPR) was employed to detect the inhibition of protein binding by compound pretreatment. In principle, one of the proteins was attached to the sensor chip, and IBR compounds were allowed to pass through the surface; then, the binding of the second protein was measured. If IBR compounds bind the immobilized protein, the binding of the second protein will be reduced; otherwise, the binding capacity of second protein will be mostly retained.

BRC repeat = test: SPR compound pretreatment, immobilized BRC repeat; type: binding
Experimental: as §1

Rad51 [3] = biological target: T3, Rad51; test: gel filtration profile of Rad51 (multimerization); type: biochemical; settings: data not shown
Experimental: To test this possibility, the inventors then compared the gel filtration profile of Rad51 incubated in the presence or absence of IBR2. […] The inventors then aligned the 3D structure of IBR2 with the BRC4 hairpin structure and the Rad51 oligomerization motif together. […] Therefore, one possibility of the action mechanism is that IBR compounds, by mimicking Phe1524 of BRCA2, may block the entrance of the hydrophobic binding pocket on Rad51 core domain, and inhibit BRCA2/Rad51 interaction as well as Rad51 multimerization.

[4] = system: Ba/F3 cells expressing T315I BCR-ABL; test: XTT growth inhibition; type: cell-based, murine; settings: Mus musculus, BaF3, 48 hr
Experimental: (§2) In CML cells, the constitutively active BCR-ABL is responsible for maintaining high levels of Rad51 activity by direct activation through phosphorylation and transcriptional up-regulation mediated by STAT5. It is therefore contemplated that inhibition of Rad51 activity by IBR2 may have detrimental effects on CML. To test this possibility, murine hematopoietic Ba/F3 progenitor cells expressing different versions of BCR-ABL (e.g., wild-type, T315I, and E255K) mutants were treated with IBR2 at indicated concentrations for 48 hr, and growth inhibition was then determined by XTT (sodium 3′-[1-(phenylaminocarbonyl)-3,4-tetrazolium]-bis(4-methoxy-6-nitro) benzene sulfonate) assay. […] To further test whether the growth inhibition was resulted from cell death or cytostatic effect of IBR2 treatment, the inventors then determined the percentages of annexin V positive cells, which is indicative of cell death, after IBR2 treatment.

[5] = system: BCR-ABL-expressing Ba/F3 cells; test: XTT growth inhibition; type: cell-based, murine; settings: 48 hr
Experimental: as §2
To examine the consequence of the BCR-ABL/Stat5/Rad51 regulatory pathway, the protein expression as well as their phosphorylation states in IBR2-treated cells were analyzed by Western blot. […] On the contrary, there was little effect on Ba/F3 parental cells. The decrease of Rad51 expression in IBR2-treated cells is consistent with the inventors′ earlier observation that IBR2 induces Rad51 degradation mediated by proteasome in breast cancer cells. […]

Ba/F3 parental cells [6] = test: XTT growth inhibition; type: cell-based, murine; settings: 48 hr
[7] = system: Ba/F3 cells expressing WT, T315I or E255K BCR-ABL; test: annexin V positive cells (apoptosis); type: cell-based, murine; settings: dose dependent
Experimental: as §2

[8] = system: Ba/F3 cells carrying BCR-ABL expression; test: Western blot of BCR-ABL/Stat5/Rad51 pathway; type: cell-based, murine
Experimental: To examine the consequence of the BCR-ABL/Stat5/Rad51 regulatory pathway, the protein expression as well as their phosphorylation states in IBR2-treated cells were analyzed by Western blot. […] On the contrary, there was little effect on Ba/F3 parental cells. The decrease of Rad51 expression in IBR2-treated cells is consistent with the inventors′ earlier observation that IBR2 induces Rad51 degradation mediated by proteasome in breast cancer cells. Furthermore, the inventors performed the same set of experiments using compound B6, which has no inhibitory activity to Rad51 in vitro.

Ba/F3 parental cells [9] = test: Western blot of protein expression; type: cell-based, murine; settings: IBR2-treated
Experimental: To examine the consequence of the BCR-ABL/Stat5/Rad51 regulatory pathway, the protein expression as well as their phosphorylation states in IBR2-treated cells were analyzed by Western blot.

Ba/F3-p210 cells [10] = test: percentage of apoptotic cells; type: cell-based, murine; settings: 48 hours
Source text: Since Rad51 and BCR-ABL are in the same pathway essential for cell survival, it was contemplated that simultaneous treatment of Ba/F3-p210 cells with both inhibitors may synergistically enhance the cell death. […] Exemplary results are depicted in FIGS. 4A and 4B.

Ba/F3-p210 cells [11] = test: median-effect and Combination Index analysis (Chou's method); type: cell-based, murine; settings: Mus musculus, read-out: median-effect dose (Dm)
Ba/F3-T315I cells [12] = test: induction of cell death; type: cell-based, murine; settings: 20 μM IBR2 alone
Ba/F3-T315I cells [13] = test: Western blot of protein expression; type: cell-based, murine; settings: 20 μM IBR2 alone, within 12-24 hours
Source text: Direct targeting to Rad51 may provide a potential strategy to overcome this type of resistance. […] Next, the inventors examined the effects of IBR2 treatment on the protein expression levels in these cells by western blot.

Ba/F3-T315I cells [14] = test: survival of NOD/SCID mice injected with Ba/F3-T315I cells; type: in vivo; settings: 100 mg/kg, 30 days, vs vehicle, p<0.01
[15] = system: human blast crisis CML K562 cells; test: percentage of apoptotic cells; type: cell-based
Ba/F3-P210 = test: cell growth (viable cell count / XTT); type: cell-based; settings: 0 to 20 μM, up to three days, dose-dependent
Experimental: (§3) The inventors also examined the effect of IBR2 on growth of Ba/F3 expressing wild type Bcr-Abl-P210 and Bcr-Abl mutant isoform T315I. […] FIG. 9 illustrates the effect of IBR2 on parental Ba/F3 cells and Ba/F3 cells expressing WT Bcr-Abl or Bcr-Abl mutant isoform T315I cells. […] After 72 hours of incubation, proliferation was measured by XTT-based method. Absorbance was measured at 490 nm in a microplate reader. Bars are SD, n=2.

Ba/F3-T315I = test: cell growth (viable cell count / XTT); type: cell-based; settings: 0 to 20 μM, up to three days, dose-dependent
Experimental: as §3

Ba/F3-p210 cells [16] = test: Western blot of protein expression; type: cell-based, murine; settings: 0.1-0.6 μM imatinib, absence of IBR2
Source text: The inventors then examined the effects of co-treatment on Rad51, BCR-ABL, and Stat5 protein expression levels as described above.

K562 cells = test: Western blot of protein expression; type: cell-based, human; settings: imatinib, absence of IBR2
Source text: The inventors then examined the protein expression levels of Rad51, BCR-ABL and Stat5 by western blot analysis.

[17] = SPR, solution competition format, read-out: median inhibition concentration

O=S(=O)(Cc1ccccc1)N1C=Cc2ccccc2C1c1c[nH]c2ccccc12 (racemic) [IBR2]
IC50 (Rad51-BRC repeat binding; [17]): ~115 nM

O=S(=O)(Cc1ccccc1)N1C=Cc2ccccc2C1c1c[nH]c2ccccc12 (centres unmarked) [IBR2]
yeast two-hybrid screening (BRC-RAD51 interaction): positive
IR-induced Rad51 foci formation [1]: dramatically reduced Rad51 foci formation
IR-induced Rad51 foci formation ([1]; listed as NS7798): positive
IC50 (Rad51-BRC repeat binding; Biacore competitive binding assay, read-out: IC50): 110 nM
binding of BRC repeat to immobilized Rad51 after compound pretreatment (Rad51 [2]): lost the ability to bind BRC repeat
binding of immobilized BRC repeat to Rad51 after compound pretreatment (BRC repeat): did not affect
Rad51 elution profile (multimerization) (Rad51 [3]): major peak consistent with the molecular weight of a monomer
IC50 [4]: 12000 nM
proliferation [5]: inhibited the proliferation
proliferation (Ba/F3 parental cells [6]): much less
apoptosis (annexin V positive cells) [7]: induced apoptosis
Rad51, BCR-ABL and phosphorylated Stat5 (p-Stat5) levels [8]: dose-dependent decreases
c-Abl, p-c-Abl and total Stat5 protein [8]: unchanged
protein expression and phosphorylation (Ba/F3 parental cells [9]): little effect
apoptotic cells (Ba/F3-p210 cells [10]; IBR2 5 μM): about 1.7%
apoptotic cells (Ba/F3-p210 cells [10]; IBR2 10 μM): ~4.1%
apoptotic cells (Ba/F3-p210 cells [10]; IBR2 15 μM alone): < 10% and ~12.6%
apoptotic cells (Ba/F3-p210 cells [10]; IBR2 20 μM): ~57.1%
EC50 (Ba/F3-p210 cells [11]): 13900 nM
cell death (Ba/F3-T315I cells [12]): over 80%
protein expression levels of Rad51, BCR-ABL, p-BCR-ABL and p-Stat5 (Ba/F3-T315I cells [13]): dramatically reduced
survival of mice (Ba/F3-T315I cells [14]): significantly prolonged survivals
apoptotic percentage ([15]; IBR2 15 μM alone): ~10%
cell growth (Ba/F3-P210): significantly inhibited the growth
cell growth (Ba/F3-T315I): significantly inhibited the growth

O=S(=O)(Cc1ccccc1)N1C=Cc2ccccc2[C@@H]1c1c[nH]c2ccccc12 [R-IBR2]
IC50 (Rad51-BRC repeat binding; [17]): ~1 nM

Cc1ccc(NC(=O)c2ccc(CN3CCN(C)CC3)cc2)cc1Nc1nccc(-c2cccnc2)n1 [imatinib]
apoptotic cells (Ba/F3-p210 cells [10]; imatinib 0.1 μM): about 6.8%
apoptotic cells (Ba/F3-p210 cells [10]; imatinib 0.2 μM): ~7.6% and ~10%
apoptotic cells (Ba/F3-p210 cells [10]; imatinib 0.4 μM): ~23.1%
apoptotic cells (Ba/F3-p210 cells [10]; imatinib 0.6 μM): ~39.3%
Rad51, BCR-ABL, p-BCR-ABL and p-Stat5 levels (Ba/F3-p210 cells [16]): modestly decreased
Stat5 protein level (Ba/F3-p210 cells [16]): did not influence
apoptotic percentage ([15]; imatinib 0.1 μM): about 9.7%
apoptotic percentage ([15]; imatinib 0.2 μM): ~11.8%
apoptotic percentage ([15]; imatinib 0.6 μM): ~28.1%
Rad51, BCR-ABL, p-BCR-ABL, p-Stat5 levels (K562 cells): decreased in a dose dependent manner
Stat5 protein level (K562 cells): did not affect
